{"source": "patent US9999222B2", "about": "“Herbicidal combination comprising azines” (BASF SE, priority 2014, dated 2018)", "assay_in_all_cases": "Greenhouse test, pre-emergence treatment", "key": {"PHACA": {"test_system": "PHACA", "assay_type": "in vivo, Phalaris canariensis", "details": "Phalaris canariensis, pre-emergence, 480 h, pre-emergence, 20 DAT, read-out: observed % activity 20 DAT", "how_it_was_run": "(§1)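 Damage was rated on a 0-100 scale, with 100 meaning no emergence or full destruction of aerial parts. Observed combination effects were set against the additive Colby expectation E=X+Y−(X·Y/100). Spray liquor was water-based, from 10% emulsion concentrates, applied pre-emergence right after sowing in loamy sand (about 3.0% humus). Plants were held at 10-25 °C or 20-35 °C for 2 to 4 weeks.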"}, "LOLMU": {"test_system": "LOLMU", "assay_type": "in vivo, Lolium multiflorum", "details": "Lolium multiflorum, pre-emergence, 480 h, pre-emergence, 20 DAT, read-out: observed % activity 20 DAT", "how_it_was_run": "as §1"}, "SETFA": {"test_system": "SETFA", "assay_type": "in vivo, Setaria faberi", "details": "20 DAT", "how_it_was_run": "as §1"}, "GERPU": {"test_system": "GERPU", "assay_type": "in vivo, Geranium pusillum", "details": "Geranium pusillum, pre-emergence, 480 h, pre-emergence, 20 DAT, read-out: observed % activity 20 DAT", "how_it_was_run": "as §1"}, "KCHSC": {"test_system": "KCHSC", "assay_type": "in vivo, Kochia scoparia", "details": "pre-emergence, 20 DAT", "how_it_was_run": "as §1"}, "POLCO": {"test_system": "POLCO", "assay_type": "in vivo, Polygonum convolvulus", "details": "pre-emergence, 20 DAT", "how_it_was_run": "as §1"}, "ECHCG": {"test_system": "ECHCG", "assay_type": "in vivo, Echinocloa crus-galli", "details": "Echinochloa crus-galli, 480 h, 20 DAT, read-out: observed % activity 20 DAT", "how_it_was_run": "as §1"}, "ALOMY": {"test_system": "ALOMY", "assay_type": "in vivo, Alopecurus myosuroides", "details": "pre-emergence, pre-emergence, 20 DAT", "how_it_was_run": "as §1"}}, "note": "“And” between values parts separate entries of the source, which are not always exact repeats. Identical values can stand only once.", "data": [{"smiles": "CC(C)(F)c1nc(N)nc(Nc2c(F)c(F)cc(F)c2F)n1", "note": "[compound 2, 6-(1-Fluoro-1-methyl-ethyl)-N4-(2,3,5,6-tetrafluorophenyl)-1,3,5-triazine-2,4-diamine]", "values": [{"measurement": "inhibition at 1 g/ha", "setting": "PHACA; PHACA, use rate 1 g ai/ha", "result": 20, "unit": "%"}, {"measurement": "inhibition at 2 g/ha", "setting": "PHACA; PHACA, use rate 2 g ai/ha", "result": 70, "unit": "%"}, {"measurement": "pest or weed control at 1 g/ha", "setting": "PHACA; use rate 1 g ai/ha", "result": 20, "unit": "%"}, {"measurement": "pest or weed control at 4 g/ha", "setting": "PHACA; use rate 4 g ai/ha", "result": 95, "unit": "%"}, {"measurement": "pest or weed control at 8 g/ha", "setting": "PHACA; use rate 8 g ai/ha", "result": 85, "unit": "%"}, {"measurement": "inhibition at 1 g/ha", "setting": "LOLMU; LOLMU, use rate 1 g ai/ha", "result": 40, "unit": "%"}, {"measurement": "inhibition at 2 g/ha", "setting": "LOLMU; LOLMU, use rate 2 g ai/ha", "result": 80, "unit": "%"}, {"measurement": "inhibition at 4 g/ha", "setting": "LOLMU; LOLMU, use rate 4 g ai/ha", "result": 95, "unit": "%"}, {"measurement": "pest or weed control at 1 g/ha", "setting": "LOLMU; use rate 1 g ai/ha", "result": 20, "unit": "%"}, {"measurement": "pest or weed control at 2 g/ha", "setting": "LOLMU; use rate 2 g ai/ha", "result": 80, "unit": "%"}, {"measurement": "pest or weed control at 4 g/ha", "setting": "LOLMU; use rate 4 g ai/ha", "result": 95, "unit": "%"}, {"measurement": "inhibition at 1 g/ha", "setting": "SETFA; Setaria faberi, 480 h, SETFA, use rate 1 g ai/ha, read-out: observed % activity 20 DAT", "result": 80, "unit": "%"}, {"measurement": "inhibition at 2 g/ha", "setting": "SETFA; Setaria faberi, 480 h, SETFA, use rate 2 g ai/ha, read-out: observed % activity 20 DAT", "result": 95, "unit": "%"}, {"measurement": "inhibition at 4 g/ha", "setting": "SETFA; Setaria faberi, 480 h, SETFA, use rate 4 g ai/ha, read-out: observed % activity 20 DAT", "result": 95, "unit": "%"}, {"measurement": "observed % activity 20 DAT", "setting": "SETFA; use rate 2 g ai/ha", "result": "75% and 65%"}, {"measurement": "pest or weed control at 1 g/ha", "setting": "GERPU; use rate 1 g ai/ha", "result": 0, "unit": "%"}, {"measurement": "pest or weed control at 2 g/ha", "setting": "GERPU; use rate 2 g ai/ha", "result": 0, "unit": "%"}, {"measurement": "pest or weed control at 1 g/ha", "setting": "KCHSC; Bassia scoparia, 480 h, use rate 1 g ai/ha, read-out: observed % activity 20 DAT", "result": 0, "unit": "%"}, {"measurement": "pest or weed control at 2 g/ha", "setting": "KCHSC; Bassia scoparia, 480 h, use rate 2 g ai/ha, read-out: observed % activity 20 DAT", "result": 50, "unit": "%"}, {"measurement": "inhibition at 1 g/ha", "setting": "KCHSC; Bassia scoparia, 480 h, KCHSC, use rate 1 g ai/ha, read-out: observed % activity 20 DAT", "result": 45, "unit": "%"}, {"measurement": "inhibition at 2 g/ha", "setting": "KCHSC; Bassia scoparia, 480 h, KCHSC, use rate 2 g ai/ha, read-out: observed % activity 20 DAT", "result": 80, "unit": "%"}, {"measurement": "inhibition at 4 g/ha", "setting": "KCHSC; Bassia scoparia, 480 h, KCHSC, use rate 4 g ai/ha, read-out: observed % activity 20 DAT", "result": 90, "unit": "%"}, {"measurement": "inhibition at 8 g/ha", "setting": "KCHSC; Bassia scoparia, 480 h, KCHSC, use rate 8 g ai/ha, read-out: observed % activity 20 DAT", "result": 80, "unit": "%"}, {"measurement": "observed % activity 20 DAT", "setting": "KCHSC; KCHSC, use rate 8 g ai/ha", "result": 95, "unit": "%"}, {"measurement": "pest or weed control at 1 g/ha", "setting": "POLCO; Fallopia convolvulus, 480 h, use rate 1 g ai/ha, read-out: observed % activity 20 DAT", "result": 60, "unit": "%"}, {"measurement": "pest or weed control at 2 g/ha", "setting": "POLCO; Fallopia convolvulus, 480 h, use rate 2 g ai/ha, read-out: observed % activity 20 DAT", "result": 70, "unit": "%"}, {"measurement": "inhibition at 2 g/ha", "setting": "POLCO; Fallopia convolvulus, 480 h, POLCO, use rate 2 g ai/ha, read-out: observed % activity 20 DAT", "result": 70, "unit": "%"}, {"measurement": "inhibition at 4 g/ha", "setting": "POLCO; Fallopia convolvulus, 480 h, POLCO, use rate 4 g ai/ha, read-out: observed % activity 20 DAT", "result": 95, "unit": "%"}, {"measurement": "observed % activity 20 DAT", "setting": "POLCO; POLCO, use rate 1 g ai/ha", "result": 15, "unit": "%"}, {"measurement": "inhibition at 1 g/ha", "setting": "ECHCG; ECHCG, use rate 1 g ai/ha", "result": 65, "unit": "%"}, {"measurement": "inhibition at 2 g/ha", "setting": "ECHCG; ECHCG, use rate 2 g ai/ha", "result": 98, "unit": "%"}, {"measurement": "pest or weed control at 1 g/ha", "setting": "ECHCG; use rate 1 g ai/ha", "result": 65, "unit": "%"}, {"measurement": "inhibition at 1 g/ha", "setting": "ALOMY; Alopecurus myosuroides, 480 h, ALOMY, use rate 1 g ai/ha, read-out: observed % activity 20 DAT", "result": 60, "unit": "%"}, {"measurement": "inhibition at 2 g/ha", "setting": "ALOMY; Alopecurus myosuroides, 480 h, ALOMY, use rate 2 g ai/ha, read-out: observed % activity 20 DAT", "result": 70, "unit": "%"}, {"measurement": "inhibition at 4 g/ha", "setting": "ALOMY; Alopecurus myosuroides, 480 h, ALOMY, use rate 4 g ai/ha, read-out: observed % activity 20 DAT", "result": 90, "unit": "%"}, {"measurement": "pest or weed control at 1 g/ha", "setting": "ALOMY; Alopecurus myosuroides, 480 h, use rate 1 g ai/ha, read-out: observed % activity 20 DAT", "result": 45, "unit": "%"}, {"measurement": "pest or weed control at 2 g/ha", "setting": "ALOMY; Alopecurus myosuroides, 480 h, use rate 2 g ai/ha, read-out: observed % activity 20 DAT", "result": 75, "unit": "%"}, {"measurement": "pest or weed control at 4 g/ha", "setting": "ALOMY; Alopecurus myosuroides, 480 h, use rate 4 g ai/ha, read-out: observed % activity 20 DAT", "result": 90, "unit": "%"}, {"measurement": "observed % activity 20 DAT", "setting": "ALOMY; ALOMY, use rate 4 g ai/ha", "result": 95, "unit": "%"}, {"measurement": "observed % activity 20 DAT", "setting": "ALOMY; ALOMY, use rate 8 g ai/ha", "result": "50% and 80% and 95%"}]}]}
